Legend:
LAMTOR1 = molecular target: T1, LAMTOR1 (Mus musculus, UniProt Q9CQ22, L22A); assay: DARTS in lysate of transfected HEK293 cells, […] ACA; type: cell-based
T1 construct: MYC-LAMTOR1^L22A

[1] = molecular target: LAMTOR1 (late endosomal/lysosomal adaptor, MAPK and MTOR activator 1) (Mus musculus, UniProt Q9CQ22); assay: dose-dependent DARTS western blot in 3T3-L1 lysate; CETSA and isothermal dose-response CETSA; type: biochemical
Sequence of LAMTOR1 (late endosomal/lysosomal adaptor, MAPK and MTOR activator 1) (Q9CQ22 2-161): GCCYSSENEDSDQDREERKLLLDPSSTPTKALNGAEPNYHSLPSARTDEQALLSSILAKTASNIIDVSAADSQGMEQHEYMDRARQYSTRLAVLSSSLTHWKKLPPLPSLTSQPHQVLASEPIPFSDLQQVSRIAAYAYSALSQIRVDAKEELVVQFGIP

T1 sequence (Q9CQ22 2-161 L22A): as the sequence (Q9CQ22 2-161) above, with L21A counted along it

Question: Which “% increase in stability” value (LAMTOR1) does the source give for `COc1ccc(-c2cc(=O)c3c(O)cc(O)cc3o2)cc1` [ACA, 5,7-dihydroxy-4’methoxyflavone] here?
Answer: The value was 35.7 % increase in stability.

Question: And the EC50 [1]?
Answer: Its EC50 is roughly 44 µM.

— article PMC12758200, “Inhibition of lysosomal LAMTOR1 increases autophagy by suppressing the MTORC1 pathway to ameliorate lipid accumulations in MAFLD” (Autophagy, 2025)
